According to paper PMC7900183 (2021):

Experiments:
[1] = tested on: Apt5 (DNA, aptamer) GCGTAGATCGAGGCTATTAGGAGGTGGGATGCGTCAGGGC; assay: fluorescence enhancement; details: 150 mM Na+; 61x enhancement; 1 µM DNA, 5 µM ThT; 50 mM Tris, pH 7.4
[2] = tested on: Apt5.13-36 (DNA, aptamer) GCTATTAGGAGGTGGGATGCGTCA; assay: fluorescence enhancement; details: 150 mM Na+; less fluorescent than Apt5; 1 µM DNA, 5 µM ThT; 50 mM Tris, pH 7.4
[3] = tested on: Apt4 (DNA, aptamer) GACCGGAGGGGCATCAGCTGTCCGTGAGGTTGCCGCGAGT; assay: fluorescence enhancement; details: 150 mM Na+; 14x enhancement; 1 µM DNA, 5 µM ThT; 50 mM Tris, pH 7.4
[4] = tested on: Primer-215 (DNA, single strand) ATGACCTATGAATTGACAGAC; assay: fluorescence enhancement; details: no fluorescence; 5 µM ThT, 1 µM oligonucleotide; text says miR-215 (Primer-215)
[5] = tested on: PW17Ext (DNA, G4) GAGGAGGAGGAGGAGAGGGTAGGGCGGGTTGGG; assay: fluorescence melting; details: 150 mM Na+, 10 mM K+; 50 mM Tris, pH 7.4; complex more stable than without K+
[6] = tested on: Apt1 (DNA, aptamer) TCGCGTGTGCAGAGGCGAGTAGGTGGGAGATCTGTCTGGG; assay: fluorescence enhancement; details: 150 mM Na+; 9x enhancement; 1 µM DNA, 5 µM ThT; 50 mM Tris, pH 7.4
[7] = tested on: ThT.2-2 (DNA, aptamer) GACGACGACACAGGATTAATCTTATTAGTCGTC; assay: fluorescence enhancement; details: less fluorescent than Apt5.9-32; several concentrations
[8] = tested on: Apt5.9-32 (DNA, aptamer) CGAGGCTATTAGGAGGTGGGATGC; assay: fluorescence titration, 510 nm; details: 150 mM Na+; 50 mM Tris, pH 7.4; 1 µM ThT, aptamer 2.5-50 µM; mean of three
[9] = tested on: Apt5.5-28 (DNA, aptamer) AGATCGAGGCTATTAGGAGGTGGG; assay: fluorescence enhancement; details: 150 mM Na+; less fluorescent than Apt5; 1 µM DNA, 5 µM ThT; 50 mM Tris, pH 7.4
[10] = tested on: Apt2 (DNA, aptamer) GACCGGAGGGGCATCAGCTGTCCGTGAGGTTGCCGCGAG; assay: fluorescence enhancement; details: 150 mM Na+; 13x enhancement; 1 µM DNA, 5 µM ThT; 50 mM Tris, pH 7.4
[11] = tested on: Apt3 (DNA, aptamer) GCACGTCCAGGACGGGGGAGCGGTGCTAGTGTCTGGCAGG; assay: fluorescence enhancement; details: 150 mM Na+; 20x enhancement; 1 µM DNA, 5 µM ThT; 50 mM Tris, pH 7.4
[12] = tested on: Apt5.17-40 (DNA, aptamer) TTAGGAGGTGGGATGCGTCAGGGC; assay: fluorescence enhancement; details: 150 mM Na+; less fluorescent than Apt5; 1 µM DNA, 5 µM ThT; 50 mM Tris, pH 7.4
[13] = tested on: Apt5.1-24 (DNA, aptamer) GCGTAGATCGAGGCTATTAGGAGG; assay: fluorescence enhancement; details: 150 mM Na+; less fluorescent than Apt5; 1 µM DNA, 5 µM ThT; 50 mM Tris, pH 7.4

binding [1]: yes | binding [2]: weak | binding [3]: yes | binding [4]: no | binding [5]: yes | binding [6]: yes | binding [7]: yes | dissociation constant [8]: 6 ± 2 µM | binding [9]: weak | binding [10]: yes | binding [11]: yes | binding [12]: weak | binding [13]: weak
SMILES: Cc1ccc2c(c1)sc(-c1ccc(N(C)C)cc1)[n+]2C
